Data from ChEMBL document CHEMBL1255438, “Comparative activities of TR-700 (torezolid) against staphylococcal blood isolates collected in Spain” (2010).
Converted amounts (≈) assume the structure as drawn. The source made the active and inactive calls. The calls are words filed in the database; no cut-off is given here.

Key:
Assay type in all cases: functional
[1] = test system: Staphylococcus aureus; assay: Antimicrobial activity against linezolid-susceptible Staphylococcus aureus by CLSI method
[2] = test system: Staphylococcus aureus; assay: Antimicrobial activity against linezolid-susceptible Staphylococcus aureus assessed as percent susceptible strain by CLSI method
[3] = test system: Staphylococcus aureus; assay: Antimicrobial activity against oxacillin-susceptible Staphylococcus aureus by CLSI method
[4] = test system: Staphylococcus aureus; assay: Antimicrobial activity against oxacillin-susceptible Staphylococcus aureus assessed as percent susceptible strain by CLSI method
[5] = test system: Staphylococcus aureus; assay: Antimicrobial activity against oxacillin-resistant Staphylococcus aureus by CLSI method
[6] = test system: Staphylococcus aureus; assay: Antimicrobial activity against linezolid-resistant Staphylococcus aureus by CLSI method
[7] = test system: Staphylococcus; assay: Antimicrobial activity against linezolid-susceptible coagulase-negative Staphylococcus by CLSI method
[8] = test system: Staphylococcus; assay: Antimicrobial activity against linezolid-susceptible coagulase-negative Staphylococcus assessed as percent susceptible strain by CLSI method
[9] = test system: Staphylococcus; assay: Antimicrobial activity against oxacillin-susceptible coagulase-negative Staphylococcus aureus by CLSI method
[10] = Antimicrobial activity against oxacillin-susceptible coagulase-negative Staphylococcus aureus assessed as percent susceptible strain by CLSI method
[11] = test system: Staphylococcus; assay: Antimicrobial activity against oxacillin-resistant coagulase-negative Staphylococcus aureus by CLSI method
[12] = test system: Staphylococcus; assay: Antimicrobial activity against linezolid-resistant coagulase-negative Staphylococcus by CLSI method
[13] = test system: Staphylococcus aureus; assay: Antimicrobial activity against methicillin-resistant Staphylococcus aureus by CLSI method
[14] = test system: Staphylococcus; assay: Antimicrobial activity against Linezolid and methicillin-resistant coagulase-negative Staphylococcus by CLSI method
[15] = test system: Staphylococcus aureus; assay: Antimicrobial activity against linezolid-resistant Staphylococcus aureus assessed as percent susceptible strain by CLSI method
[16] = test system: Staphylococcus aureus; assay: Antimicrobial activity against linezolid-resistant Staphylococcus aureus assessed as inhibition of microbial growth at 16 ug/ml by CLSI method
[17] = test system: Staphylococcus aureus; assay: Antimicrobial activity against oxacillin-resistant Staphylococcus aureus assessed as inhibition of microbial growth at 4 ug/ml by CLSI method
[18] = test system: Staphylococcus aureus; assay: Antimicrobial activity against oxacillin-resistant Staphylococcus aureus assessed as inhibition of microbial growth at 2 ug/ml by CLSI method
[19] = test system: Staphylococcus aureus; assay: Antimicrobial activity against oxacillin-resistant Staphylococcus aureus assessed as inhibition of microbial growth at =< 0.25 ug/ml by CLSI method
[20] = test system: Staphylococcus aureus; assay: Antimicrobial activity against oxacillin-resistant Staphylococcus aureus assessed as inhibition of microbial growth at 1 ug/ml by CLSI method
[21] = test system: Staphylococcus aureus; assay: Antimicrobial activity against oxacillin-resistant Staphylococcus aureus assessed as inhibition of microbial growth at 0.5 ug/ml by CLSI method
[22] = test system: Staphylococcus; assay: Antimicrobial activity against linezolid-resistant coagulase-negative Staphylococcus assessed as percent susceptible strain by CLSI method
[23] = test system: Staphylococcus aureus; assay: Antimicrobial activity against linezolid-susceptible Staphylococcus aureus assessed as inhibition of microbial growth at =< 0.25 ug/ml by CLSI method
[24] = test system: Staphylococcus aureus; assay: Antimicrobial activity against linezolid-susceptible Staphylococcus aureus assessed as inhibition of microbial growth at 0.5 ug/ml by CLSI method
[25] = test system: Staphylococcus aureus; assay: Antimicrobial activity against linezolid-susceptible Staphylococcus aureus assessed as inhibition of microbial growth at 1 ug/ml by CLSI method
[26] = test system: Staphylococcus aureus; assay: Antimicrobial activity against linezolid-susceptible Staphylococcus aureus assessed as inhibition of microbial growth at 2 ug/ml by CLSI method
[27] = test system: Staphylococcus aureus; assay: Antimicrobial activity against linezolid-susceptible Staphylococcus aureus assessed as inhibition of microbial growth at 4 ug/ml by CLSI method
[28] = test system: Staphylococcus aureus; assay: Antimicrobial activity against oxacillin-susceptible Staphylococcus aureus assessed as inhibition of microbial growth at =< 0.25 ug/ml by CLSI method
[29] = test system: Staphylococcus aureus; assay: Antimicrobial activity against oxacillin-susceptible Staphylococcus aureus assessed as inhibition of microbial growth at 0.5 ug/ml by CLSI method
[30] = test system: Staphylococcus aureus; assay: Antimicrobial activity against oxacillin-susceptible Staphylococcus aureus assessed as inhibition of microbial growth at 1 ug/ml by CLSI method
[31] = test system: Staphylococcus aureus; assay: Antimicrobial activity against oxacillin-susceptible Staphylococcus aureus assessed as inhibition of microbial growth at 2 ug/ml by CLSI method
[32] = test system: Staphylococcus aureus; assay: Antimicrobial activity against oxacillin-susceptible Staphylococcus aureus assessed as inhibition of microbial growth at 4 ug/ml by CLSI method
[33] = test system: Staphylococcus; assay: Antimicrobial activity against linezolid-susceptible coagulase-negative Staphylococcus assessed as inhibition of microbial growth at =< 0.25 ug/ml by CLSI method
[34] = test system: Staphylococcus; assay: Antimicrobial activity against linezolid-susceptible coagulase-negative Staphylococcus assessed as inhibition of microbial growth at 0.5 ug/ml by CLSI method
[35] = test system: Staphylococcus; assay: Antimicrobial activity against linezolid-susceptible coagulase-negative Staphylococcus assessed as inhibition of microbial growth at 1 ug/ml by CLSI method
[36] = test system: Staphylococcus; assay: Antimicrobial activity against linezolid-susceptible coagulase-negative Staphylococcus assessed as inhibition of microbial growth at 2 ug/ml by CLSI method
[37] = test system: Staphylococcus; assay: Antimicrobial activity against linezolid-susceptible coagulase-negative Staphylococcus assessed as inhibition of microbial growth at 4 ug/ml by CLSI method
[38] = test system: Staphylococcus aureus; assay: Antimicrobial activity against oxacillin-susceptible coagulase-negative Staphylococcus aureus assessed as inhibition of microbial growth at =< 0.25 ug/ml by CLSI method
[39] = test system: Staphylococcus aureus; assay: Antimicrobial activity against oxacillin-susceptible coagulase-negative Staphylococcus aureus assessed as inhibition of microbial growth at 0.5 ug/ml by CLSI method
[40] = test system: Staphylococcus aureus; assay: Antimicrobial activity against oxacillin-susceptible coagulase-negative Staphylococcus aureus assessed as inhibition of microbial growth at 1 ug/ml by CLSI method
[41] = test system: Staphylococcus aureus; assay: Antimicrobial activity against oxacillin-susceptible coagulase-negative Staphylococcus aureus assessed as inhibition of microbial growth at 2 ug/ml by CLSI method
[42] = test system: Staphylococcus aureus; assay: Antimicrobial activity against oxacillin-resistant coagulase-negative Staphylococcus aureus assessed as inhibition of microbial growth at 1 ug/ml by CLSI method
[43] = test system: Staphylococcus aureus; assay: Antimicrobial activity against oxacillin-resistant coagulase-negative Staphylococcus aureus assessed as inhibition of microbial growth at 2 ug/ml by CLSI method
[44] = test system: Staphylococcus aureus; assay: Antimicrobial activity against oxacillin-resistant coagulase-negative Staphylococcus aureus assessed as inhibition of microbial growth at 4 ug/ml by CLSI method
[45] = test system: Staphylococcus; assay: Antimicrobial activity against linezolid-resistant coagulase-negative Staphylococcus assessed as inhibition of microbial growth at 16 ug/ml by CLSI method
[46] = test system: Staphylococcus; assay: Antimicrobial activity against linezolid-resistant coagulase-negative Staphylococcus assessed as inhibition of microbial growth at 32 ug/ml by CLSI method
[47] = test system: Staphylococcus; assay: Antimicrobial activity against linezolid-resistant coagulase-negative Staphylococcus assessed as inhibition of microbial growth at 64 ug/ml by CLSI method
[48] = test system: Staphylococcus; assay: Antimicrobial activity against linezolid-resistant coagulase-negative Staphylococcus assessed as inhibition of microbial growth at 128 ug/ml by CLSI method
[49] = test system: Staphylococcus; assay: Antimicrobial activity against linezolid-resistant coagulase-negative Staphylococcus assessed as inhibition of microbial growth at 256 ug/ml by CLSI method

## CCCCCCCCCC(=O)N[C@@H](Cc1c[nH]c2ccccc12)C(=O)N[C@H](CC(N)=O)C(=O)N[C@@H](CC(=O)O)C(=O)N[C@@H]1C(=O)NCC(=O)N[C@@H](CCCN)C(=O)N[C@@H](CC(=O)O)C(=O)N[C@H](C)C(=O)N[C@@H](CC(=O)O)C(=O)NCC(=O)N[C@H](CO)C(=O)N[C@@H]([C@H](C)CC(=O)O)C(=O)N[C@@H](CC(=O)c2ccccc2N)C(=O)O[C@@H]1C
[1]
  MIC50: 0.25 µg/mL (≈ 0.154 µM)
  MIC90: 0.5 µg/mL (≈ 0.309 µM)
[2]
  Activity: 100%
[3]
  MIC50: 0.25 µg/mL (≈ 0.154 µM)
  MIC90: 0.5 µg/mL (≈ 0.309 µM)
[4]
  Activity: 100%
[5]
  MIC50: 0.5 µg/mL (≈ 0.309 µM)
  MIC90: 0.5 µg/mL (≈ 0.309 µM)
[6]
  MIC50: 0.5 µg/mL (≈ 0.309 µM)
[7]
  MIC50: 0.25 µg/mL (≈ 0.154 µM)
  MIC90: 0.5 µg/mL (≈ 0.309 µM)
[8]
  Activity: 100%
[9]
  MIC50: 0.25 µg/mL (≈ 0.154 µM)
  MIC90: 0.5 µg/mL (≈ 0.309 µM)
[10]
  Activity: 100%
[11]
  MIC50: 0.25 µg/mL (≈ 0.154 µM)
  MIC90: 0.5 µg/mL (≈ 0.309 µM)
[12]
  MIC50: 0.5 µg/mL (≈ 0.309 µM)
[13]
  Activity: Active
[14]
  MIC: 0.5 µg/mL (≈ 0.309 µM)

## CC(=O)NC[C@H]1CN(c2ccc(N3CCOCC3)c(F)c2)C(=O)O1 [LINEZOLID]
[1]
  MIC50: 2 µg/mL (≈ 5.93 µM)
  MIC90: 2 µg/mL (≈ 5.93 µM)
[2]
  Activity: 100%
[3]
  MIC50: 1 µg/mL (≈ 2.96 µM)
  MIC90: 2 µg/mL (≈ 5.93 µM)
[4]
  Activity: 100%
[5]
  MIC50: 2 µg/mL (≈ 5.93 µM)
  MIC90: 4 µg/mL (≈ 11.9 µM)
[6]
  MIC50: 16 µg/mL (≈ 47.4 µM)
[15]
  Activity: 0%
[7]
  MIC50: 1 µg/mL (≈ 2.96 µM)
  MIC90: 2 µg/mL (≈ 5.93 µM)
[8]
  Activity: 100%
[16]
  inhibition at 16 µg/mL: 100%
[17]
  inhibition at 4 µg/mL: 100%
[18]
  inhibition at 2 µg/mL: 84.6%
[19]
  inhibition (INH): 2%
[20]
  inhibition at 1 µg/mL: 40.5%
[21]
  inhibition at 0.5 µg/mL: 4%
[9]
  MIC50: 1 µg/mL (≈ 2.96 µM)
  MIC90: 2 µg/mL (≈ 5.93 µM)
[10]
  Activity: 100%
[11]
  MIC50: 1 µg/mL (≈ 2.96 µM)
  MIC90: 2 µg/mL (≈ 5.93 µM)
[12]
  MIC50: 16 µg/mL (≈ 47.4 µM)
[22]
  Activity: 0%
[23]
  inhibition (INH): 1.3%
[24]
  inhibition at 0.5 µg/mL: 2.4%
[25]
  inhibition at 1 µg/mL: 45.2%
[26]
  inhibition at 2 µg/mL: 91.1%
[27]
  inhibition at 4 µg/mL: 100%
[28]
  inhibition (INH): 0.5%
[29]
  inhibition at 0.5 µg/mL: 0.5%
[30]
  inhibition at 1 µg/mL: 51%
[31]
  inhibition at 2 µg/mL: 99%
[32]
  inhibition at 4 µg/mL: 100%
[33]
  inhibition (INH): 3%
[34]
  inhibition at 0.5 µg/mL: 8%
[35]
  inhibition at 1 µg/mL: 80.4%
[36]
  inhibition at 2 µg/mL: 99%
[37]
  inhibition at 4 µg/mL: 100%
[38]
  inhibition (INH): 4.9%
[39]
  inhibition at 0.5 µg/mL: 9.8%
[40]
  inhibition at 1 µg/mL: 75.6%
[41]
  inhibition at 2 µg/mL: 100%
[42]
  inhibition at 1 µg/mL: 81.6%
[43]
  inhibition at 2 µg/mL: 98.7%
[44]
  inhibition at 4 µg/mL: 100%
[45]
  inhibition at 16 µg/mL: 60%
[46]
  inhibition at 32 µg/mL: 60%
[47]
  inhibition at 64 µg/mL: 80%
[48]
  inhibition at 128 µg/mL: 80%
[49]
  inhibition at 256 µg/mL: 100%
[13]
  MIC: 16 µg/mL (≈ 47.4 µM)
